Source: patent US10219516B2, “Molecules having pesticidal utility, and intermediates, compositions, and processes, related thereto” (priority 2015, dated 2019)
Read-outs that look alike come from different tables or passages of the source.

Columns and labels:
Format in all cases: in vivo
[1] = test system: Beet Armyworm (Spodoptera exigua, LAPHEG); assay: Bioassay on Beet Armyworm (BAW), 128-well diet tray assay
Procedure, shortened: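 Percent mortality, averaged across eight replicate wells, was scored after five to seven days at 25° C. under a 14:10 light-dark cycle. Each well's diet carried 50 μg/cm^2 of the dried test molecule and held one to five second instar larvae.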

[2] = test system: Cabbage Looper (Trichoplusia ni, TRIPNI); assay: Bioassay on Cabbage Looper (CL), 128-well diet tray assay; settings: Trichoplusia ni
Procedure, shortened: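 Test molecule is dissolved in 90:10 acetone-water and applied at 50 μg/cm^2 onto artificial diet, then dried. One to five second-instar larvae go into each of eight wells. Trays, sealed but vented, stay at 25° C., 14:10 light-dark, five to seven days, after which mortality is averaged.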

[3] = test system: Yellow Fever Mosquito (Aedes aegypti, AEDSAE); assay: Bioassay on Yellow Fever Mosquito (YFM), 96-well plate larval assay; settings: for YFM rating: Yellow Fever Mosquito, 96-well plate larval assay; for YFM (Biological Results, rating): Species YFM (Yellow Fever Mosquito)
Procedure, shortened: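 Each well was scored for mortality after 3 days at room temperature under a non-evaporative lid. Test molecules came from DMSO masters (4000 ppm stock) diluted with water/acetone 90:10 and dispensed into six replicate plates, which were then infested with roughly 1-day-old larvae in liver-powder water.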

[4] = Beet Armyworm, 128-well diet tray assay, read-out: BAW rating
[5] = Cabbage Looper, 128-well diet tray assay, read-out: CL rating
[6] = Species BAW (Beet Armyworm), read-out: BAW (Biological Results, rating)
[7] = Species CL (Cabbage Looper), read-out: CL (Biological Results, rating)

SMILES: Nc1ccc(F)cc1NC(=O)c1cc(NC(=O)[C@H]2[C@H](c3ccc(F)c(Cl)c3)C2(Cl)Cl)ccc1Cl [F421, N-(2-Amino-5-fluorophenyl)-2-chloro-5-((1R,3R)-2,2-dichloro-3-(3-chloro-4-fluorophenyl)cyclopropane-1-carboxamido)benzamide]
- pest or weed control at 50 µg/cm2 [1, 4]: 50 to 100%
- pest or weed control at 50 µg/cm2 [2, 5]: 50 to 100%
- YFM rating [3]: A (80-100)

SMILES: O=C(Nc1ccc(Cl)nc1)c1cc(NC(=O)[C@H]2[C@H](c3cc(Cl)cc(Cl)c3)C2(Cl)Cl)ccc1Cl (relative stereo) [F32, trans-2-Chloro-N-(6-chloropyridin-3-yl)-5-(2,2-dichloro-3-(3,5-dichlorophenyl)cyclopropane-1-carboxamido)benzamide]
- pest or weed control at 50 µg/cm2 [1, 6]: 50 to 100%
- pest or weed control at 50 µg/cm2 [2, 7]: 50 to 100%
- YFM (Biological Results, rating) [3]: A (80-100)

SMILES: Nc1cc(C(F)(F)F)cc(NC(=O)c2cc(NC(=O)C3C(c4cc(Cl)cc(Cl)c4)C3(Cl)Cl)ccc2Cl)n1 (stereo not drawn) [F328, N-(6-Amino-4-(trifluoromethyl)pyridin-2-yl-2-chloro-5-(trans-2,2-dichloro-3-(3,5-dichlorophenyl)cyclopropane-1-carboxamido)benzamide]
- pest or weed control at 50 µg/cm2 [1, 6]: 50 to 100%
- pest or weed control at 50 µg/cm2 [2, 7]: 50 to 100%
- YFM (Biological Results, rating) [3]: A (80-100)

SMILES: Nc1c(F)ccc(NC(=O)c2cc(NC(=O)[C@H]3[C@H](c4cc(Cl)c(Cl)c(Cl)c4)C3(Cl)Cl)ccc2Cl)c1F [F315, N-(3-Amino-2,4-difluorophenyl)-2-chloro-5-((1R,3R)-2,2-dichloro-3-(3,4,5-trichlorophenyl)cyclopropane-1-carboxamido)benzamide]
- pest or weed control at 50 µg/cm2 [1, 6]: 50 to 100%
- pest or weed control at 50 µg/cm2 [2, 7]: 50 to 100%
- YFM (Biological Results, rating) [3]: A (80-100)

SMILES: Nc1ccc(NC(=O)c2cc(NC(=O)[C@H]3[C@H](c4cc(Cl)cc(Cl)c4)C3(Cl)Cl)ccc2Cl)cc1F (relative stereo) [F174, trans-N-(4-Amino-3-fluorophenyl)-2-chloro-5-(2,2-dichloro-3-(3,5-dichlorophenyl)cyclopropane-1-carboxamido)benzamide]
- pest or weed control at 50 µg/cm2 [1, 6]: 50 to 100%
- pest or weed control at 50 µg/cm2 [2, 7]: 50 to 100%
- YFM (Biological Results, rating) [3]: A (80-100)

SMILES: Cc1cc(NC(=O)c2cc(NC(=O)[C@H]3[C@H](c4cc(Cl)cc(Cl)c4)C3(Cl)Cl)ccc2Cl)cnc1F (relative stereo) [F396, 2-Chloro-5-(trans-2,2-dichloro-3-(3,5-dichlorophenyl)cyclopropane-1-carboxamido)-N-(6-fluoro-5-methylpyridin-3-yl)benzamide]
- pest or weed control at 50 µg/cm2 [1, 4]: 50 to 100%
- pest or weed control at 50 µg/cm2 [2, 5]: 50 to 100%
- YFM rating [3]: A (80-100)

SMILES: O=C(Nc1ccc(F)cc1)c1cc(NC(=O)[C@H]2[C@H](c3cc(Cl)cc(Cl)c3)C2(Cl)Cl)ccc1I (relative stereo) [F4, trans-5-(2,2-Dichloro-3-(3,5-dichlorophenyl)cyclopropane-1-carboxamido)-N-(4-fluorophenyl)-2-iodobenzamide]
- pest or weed control at 50 µg/cm2 [1, 6]: 50 to 100%
- pest or weed control at 50 µg/cm2 [2, 7]: 50 to 100%
- YFM (Biological Results, rating) [3]: A (80-100)

SMILES: N#Cc1cc(Cl)cc(C2C(C(=O)Nc3ccc(Cl)c(C(=O)Nc4ccc(F)cc4)c3)C2(Cl)Cl)c1 (stereo not drawn) [PF155, 2-Chloro-5-(trans)-2,2-dichloro-3-(3-chloro-5-cyanophenyl)cyclopropane-1-carboxamido)-N-(4-fluorophenyl)benzamide]
- pest or weed control at 50 µg/cm2 [1, 4]: 50 to 100%
- pest or weed control at 50 µg/cm2 [2, 5]: 50 to 100%
- YFM rating [3]: B (More than 0-Less than 80)

SMILES: O=C(Nc1ccc2cccnc2c1)c1cc(NC(=O)C2C(c3cc(Cl)cc(Cl)c3)C2(Cl)Cl)ccc1Cl (stereo not drawn) [F436, 2-Chloro-5-(trans)-2,2-dichloro-3-(3,5-dichlorophenyl)cyclopropane-1-carboxamido)-N-(quinolin-7-yl)benzamide]
- pest or weed control at 50 µg/cm2 [1, 4]: 50 to 100%
- pest or weed control at 50 µg/cm2 [2, 5]: 50 to 100%
- YFM rating [3]: B (More than 0-Less than 80)

SMILES: C=CC(=O)Nc1ccc(NC(=O)c2cc(NC(=O)[C@H]3[C@H](c4cc(Cl)cc(Cl)c4)C3(Cl)Cl)ccc2Cl)cc1 (relative stereo) [PF26, trans-N-(4-Acrylamidophenyl)-2-chloro-5-(2,2-dichloro-3-(3,5-dichlorophenyl)cyclopropane-1-carboxamido)benzamide]
- pest or weed control at 50 µg/cm2 [1, 4]: 50 to 100%
- pest or weed control at 50 µg/cm2 [2, 5]: 50 to 100%
- YFM rating [3]: A (80-100)

SMILES: O=C(Nc1ccnc(Cl)c1)c1cc(NC(=O)[C@H]2[C@H](c3ccc(Cl)c(Cl)c3)C2(Cl)Cl)ccc1Cl [F369, 2-Chloro-N-(2-chloropyridin-4-yl)-5-((1R,3R)-2,2-dichloro-3-(3,4-dichlorophenyl)cyclopropane-1-carboxamido)benzamide]
- pest or weed control at 50 µg/cm2 [1, 6]: 50 to 100%
- pest or weed control at 50 µg/cm2 [2, 7]: 50 to 100%
- YFM (Biological Results, rating) [3]: A (80-100)

SMILES: C=C(F)c1ccc([C@H]2[C@H](C(=O)Nc3ccc(Cl)c(C(=O)Nc4ccc(F)cc4)c3)C2(Cl)Cl)cc1Cl (relative stereo) [F382, 2-Chloro-5-(trans-2,2-dichloro-3-(3-chloro-4-(1-fluorovinyl)phenyl)cyclopropane-1-carboxamido)-N-(4-fluorophenyl)benzamide]
- pest or weed control at 50 µg/cm2 [1, 4]: 50 to 100%
- pest or weed control at 50 µg/cm2 [2, 5]: 50 to 100%
- YFM rating [3]: A (80-100)

SMILES: Nc1ccc2c(c1)CN(C(=O)c1cc(NC(=O)[C@H]3[C@H](c4cc(Cl)cc(Cl)c4)C3(Cl)Cl)ccc1Cl)C2 (relative stereo) [F479, (trans)-N-(3-(5-Aminoisoindoline-2-carbonyl)-4-chlorophenyl)-2,2-dichloro-3-(3,5-dichlorophenyl)cyclopropane-1-carboxamide]
- pest or weed control at 50 µg/cm2 [1, 4]: 50 to 100%
- pest or weed control at 50 µg/cm2 [2, 5]: 50 to 100%
- YFM rating [3]: A (80-100)

SMILES: COCC1(C(=O)Nc2ccc(NC(=O)c3cc(NC(=O)[C@H]4[C@H](c5cc(Cl)cc(Cl)c5)C4(Cl)Cl)ccc3Cl)cc2)CC1 (relative stereo) [PF161, trans-2-Chloro-5-(2,2-dichloro-3-(3,5-dichlorophenyl)cyclopropane-1-carboxamido)-N-(4-(1-(methoxymethyl)cyclopropane-1-carboxamido)phenyl)benzamide]
- pest or weed control at 50 µg/cm2 [1, 4]: 50 to 100%
- pest or weed control at 50 µg/cm2 [2, 5]: 50 to 100%
- YFM rating [3]: A (80-100)

SMILES: O=C(Nc1ccc2[nH]cnc2c1)c1cc(NC(=O)C2C(c3cc(Cl)cc(Cl)c3)C2(Cl)Cl)ccc1Cl (stereo not drawn) [F456, N-(1H-Benzo[d]imidazol-5-yl)-2-chloro-5-(trans)-2,2-dichloro-3-(3,5-dichlorophenyl)cyclopropane-1-carboxamido)benzamide]
- pest or weed control at 50 µg/cm2 [1, 4]: 50 to 100%
- pest or weed control at 50 µg/cm2 [2, 5]: 50 to 100%
- YFM rating [3]: B (More than 0-Less than 80)

SMILES: Cc1cc(N)ccc1NC(=O)c1cc(NC(=O)[C@H]2[C@H](c3ccc(Cl)c(Cl)c3)C2(Cl)Cl)ccc1Cl [F285, N-(4-Amino-2-methylphenyl)-2-chloro-5-((1R,3R)-2,2-dichloro-3-(3,4-dichlorophenyl)cyclopropane-1-carboxamido)benzamide]
- pest or weed control at 50 µg/cm2 [1, 6]: 50 to 100%
- pest or weed control at 50 µg/cm2 [2, 7]: 50 to 100%
- YFM (Biological Results, rating) [3]: A (80-100)

SMILES: O=C(Nc1ccc(F)cc1F)c1cc(NC(=O)C2C(c3ccc(Cl)c(F)c3)C2(Cl)Cl)ccc1Cl (stereo not drawn) [PF36, 2-Chloro-5-(trans)-2,2-dichloro-3-(4-chloro-3-fluorophenyl)cyclopropane-1-carboxamido)-N-(2,4-difluorophenyl)benzamide]
- pest or weed control at 50 µg/cm2 [1, 4]: 50 to 100%
- pest or weed control at 50 µg/cm2 [2, 5]: 50 to 100%
- YFM rating [3]: A (80-100)

SMILES: Cc1cc(F)c(NC(=O)c2cc(NC(=O)[C@H]3[C@H](c4cc(Cl)cc(Cl)c4)C3(Cl)Cl)ccc2Cl)c(C#N)c1 (relative stereo) [F300, 2-Chloro-N-(2-cyano-6-fluoro-4-methylphenyl)-5-(trans-2,2-dichloro-3-(3,5-dichlorophenyl)cyclopropane-1-carboxamido)benzamide]
- pest or weed control at 50 µg/cm2 [1, 6]: 50 to 100%
- pest or weed control at 50 µg/cm2 [2, 7]: 50 to 100%
- YFM (Biological Results, rating) [3]: A (80-100)

SMILES: Cc1ccc(NC(=O)c2cc(NC(=O)C3C(c4cc(Cl)cc(Cl)c4)C3(Cl)Cl)ccc2Cl)cc1Cl (stereo not drawn) [PF125, 2-Chloro-N-(3-chloro-4-methylphenyl)-5-(trans)-2,2-dichloro-3-(3,5-dichlorophenyl)cyclopropane-1-carboxamido)benzamide]
- pest or weed control at 50 µg/cm2 [1, 4]: 50 to 100%
- pest or weed control at 50 µg/cm2 [2, 5]: 50 to 100%
- YFM rating [3]: A (80-100)

SMILES: CCOC(=O)c1cc2cc(NC(=O)c3cc(NC(=O)[C@H]4[C@H](c5cc(Cl)cc(Cl)c5)C4(Cl)Cl)ccc3Cl)ccc2[nH]1 (relative stereo) [F483, Ethyl 5-(2-chloro-5-(trans)(2,2-dichloro-3-(3,5-dichlorophenyl)cyclopropane-1-carboxamido)benzamido)-1H-indole-2-carboxylate]
- pest or weed control at 50 µg/cm2 [1, 4]: 50 to 100%
- pest or weed control at 50 µg/cm2 [2, 5]: 50 to 100%
- YFM rating [3]: A (80-100)

SMILES: C=C(F)c1c(F)cnc(NC(=O)c2cc(NC(=O)[C@H]3[C@H](c4cc(Cl)cc(Cl)c4)C3(Cl)Cl)ccc2Cl)c1F (relative stereo) [F394, 2-Chloro-5-(trans-2,2-dichloro-3-(3,5-dichlorophenyl)cyclopropane-1-carboxamido)-N-(3,5-difluoro-4-(1-fluorovinyl)pyridin-2-yl)benzamide]
- pest or weed control at 50 µg/cm2 [1, 4]: 50 to 100%
- pest or weed control at 50 µg/cm2 [2, 5]: 50 to 100%
- YFM rating [3]: A (80-100)
